Measured values taken from patent publication US10766884B2 (Pfizer Inc., priority 2018, dated 2020).
pIC50, pKi: −log10 of the molar value.

Assays:
CDK6/Cyclin D3 = CDK6/Cyclin D3 (Homo sapiens (Human), UniProt Q00534); assay: CDK6/Cyclin D3 mobility shift assay; assay type: biochemical; conditions: activated CDK6/Cyclin D3, 3.5 mM ATP, Morrison fit; read-out: CDK6_D3 Ki
CDK6 = CDK6 (Homo sapiens (Human), UniProt Q00534); assay: Phospho-Serine 795 Rb ELISA assay in MV4-11 cells; assay type: cell-based; conditions: overnight treatment, phospho-Rb S795, read-out: CDK6 pRB S795 ELISA MV4-11 cells IC50
Protocol: (§1) JEKO-1 or MV4-11 cells were seeded at 15,000 or 20,000 cells per well, respectively, in 100 μL growth media and allowed to incubate at 37° C. with 5% CO2 overnight. The following day, compounds were serially diluted from a 10 mM top dose for an 11-point 3-fold dilution curve in DMSO. Compounds were intermediately diluted 1:200 into growth media prior to diluting 1:5 on cells for final concentration 10 μM to 0.1 nM in 0.1% DMSO on cells. JEKO-1 and MV4-11 cells were treated were treated overnight, at 37° C. with 5% CO2. Cells were lysed in 100 μL/well CST lysis buffer on ice and transferred to pre-coated and blocked anti-phospho-Ser795 Rb ELISA plates for overnight incubation at 4° C. Plates were washed to remove residual, unbound cellular proteins and total Rb detection antibody added for 90 minutes at 37° C. Following wash to remove unbound total Rb antibody, the HRP tagged antibody was allowed to bind for 30 minutes at 37° C. Following wash to remove unbound HRP antibody, Glo Substrate Reagent was added and incubated protected from light for 5 to 10 minutes. Plates were read in luminescence mode and IC50 values calculated.

CDK4 = CDK4 (Homo sapiens (Human), UniProt P11802); assay: Phospho-Serine 795 Rb ELISA assay in JEKO-1 cells; assay type: cell-based; conditions: overnight treatment, phospho-Rb S795, read-out: CDK4 pRB S795 ELISA JEKO-1 cells IC50
Protocol: as §1

CDK4/Cyclin D1 = CDK4/Cyclin D1 (Homo sapiens (Human), UniProt P11802); assay: CDK4/Cyclin D1 mobility shift assay; assay type: biochemical; conditions: activated CDK4/Cyclin D1, 3.5 mM ATP, Morrison fit; read-out: CDK4D1 Ki
CDK4/Cyclin D1, sequence (P11802 whole entry): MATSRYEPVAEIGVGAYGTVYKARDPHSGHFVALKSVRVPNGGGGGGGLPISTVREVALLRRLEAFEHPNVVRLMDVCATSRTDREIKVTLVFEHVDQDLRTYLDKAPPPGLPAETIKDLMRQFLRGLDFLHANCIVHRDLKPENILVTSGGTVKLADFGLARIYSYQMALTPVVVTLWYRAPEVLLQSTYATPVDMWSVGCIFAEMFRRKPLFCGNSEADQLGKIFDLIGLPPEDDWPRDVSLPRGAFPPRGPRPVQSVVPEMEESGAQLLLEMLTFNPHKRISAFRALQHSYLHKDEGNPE
CDK4/Cyclin D1, sequence (P24385 whole entry partner): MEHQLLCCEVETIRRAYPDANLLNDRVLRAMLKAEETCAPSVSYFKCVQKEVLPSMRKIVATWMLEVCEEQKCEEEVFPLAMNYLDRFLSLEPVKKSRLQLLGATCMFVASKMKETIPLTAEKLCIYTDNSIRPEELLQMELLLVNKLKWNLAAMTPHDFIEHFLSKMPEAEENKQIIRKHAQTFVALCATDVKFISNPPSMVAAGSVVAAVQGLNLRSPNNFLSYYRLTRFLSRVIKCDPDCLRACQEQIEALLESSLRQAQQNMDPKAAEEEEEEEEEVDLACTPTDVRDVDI

CDK4, sequence (P11802 2-303): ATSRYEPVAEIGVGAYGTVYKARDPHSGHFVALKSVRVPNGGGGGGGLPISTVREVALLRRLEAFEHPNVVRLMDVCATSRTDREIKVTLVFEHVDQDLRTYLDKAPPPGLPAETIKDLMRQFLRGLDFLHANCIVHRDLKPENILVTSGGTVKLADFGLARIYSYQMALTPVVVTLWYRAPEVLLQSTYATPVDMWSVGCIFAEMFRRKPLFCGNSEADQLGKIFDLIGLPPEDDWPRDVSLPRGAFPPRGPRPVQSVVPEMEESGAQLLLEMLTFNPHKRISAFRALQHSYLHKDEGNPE
CDK4, sequence (P24385 whole entry partner): as the sequence (P24385 whole entry partner) above
CDK6, sequence (Q00534 whole entry): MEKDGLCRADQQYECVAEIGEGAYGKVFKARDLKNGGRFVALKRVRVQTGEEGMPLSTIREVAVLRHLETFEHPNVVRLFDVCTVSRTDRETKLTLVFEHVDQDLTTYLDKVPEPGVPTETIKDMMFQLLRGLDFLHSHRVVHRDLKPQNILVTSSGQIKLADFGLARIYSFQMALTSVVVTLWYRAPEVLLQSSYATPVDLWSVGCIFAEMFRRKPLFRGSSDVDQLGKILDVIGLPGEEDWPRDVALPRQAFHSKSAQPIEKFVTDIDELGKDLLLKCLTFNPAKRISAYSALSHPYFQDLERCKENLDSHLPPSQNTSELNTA
CDK6, sequence (P30281 whole entry partner): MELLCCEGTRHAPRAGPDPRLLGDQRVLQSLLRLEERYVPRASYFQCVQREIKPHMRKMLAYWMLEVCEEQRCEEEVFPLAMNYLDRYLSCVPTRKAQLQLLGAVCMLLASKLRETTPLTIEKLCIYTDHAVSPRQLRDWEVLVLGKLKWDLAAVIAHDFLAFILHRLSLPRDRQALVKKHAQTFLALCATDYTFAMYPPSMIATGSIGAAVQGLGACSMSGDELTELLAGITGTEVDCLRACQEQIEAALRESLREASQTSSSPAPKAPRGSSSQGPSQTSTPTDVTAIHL
CDK6/Cyclin D3, sequence (Q00534 whole entry): as the sequence (Q00534 whole entry) above
CDK6/Cyclin D3, sequence (P30281 whole entry partner): as the sequence (P30281 whole entry partner) above

| Structure (SMILES) | pKi (CDK6/Cyclin D3) | pIC50 (CDK6) | pIC50 (CDK4) | pKi (CDK4/Cyclin D1) |
| --- | --- | --- | --- | --- |
| Cc1nc2c(F)cc(-c3ccnc(N[C@@H]4CCN(S(C)(=O)=O)C[C@H]4O)n3)cc2n1C(C)C [Example A04] | 7.94 | 6.54 | 6.48 | 9.22 |
| Cc1nc2cc(F)c(-c3ccnc(N[C@@H]4CCN(S(C)(=O)=O)C[C@H]4O)n3)cc2n1C(C)C [Example A05] | 7.29 | 6.27 | 6.65 | 8.48 |
| Cc1nc2cc(F)c(-c3nc(N[C@@H]4CCN(S(C)(=O)=O)C[C@H]4O)ncc3Cl)cc2n1C(C)C [Example A06] | 7.76 | 6.72 | 7.06 | 8.85 |
| Cc1nc2cc(F)c(-c3nc(N[C@@H]4CCN(S(C)(=O)=O)C[C@H]4O)ncc3F)cc2n1C(C)C [Example A07] | 7.55 | 6.28 | 6.74 | 8.74 |
| CC1(C)CCc2nc3c(F)cc(-c4nc(N[C@@H]5CCN(S(C)(=O)=O)C[C@H]5O)ncc4Cl)cc3n21 [Example A09] | 8.85 | 7.24 | 7.77 | 10.00 |
| C[C@H]1COCc2nc3c(F)cc(-c4nc(N[C@@H]5CCN(S(C)(=O)=O)C[C@H]5O)ncc4Cl)cc3n21 [Example A10] | 7.98 | 6.71 | 7.14 | 9.22 |
| C[C@@H]1COCc2nc3c(F)cc(-c4nc(N[C@@H]5CCN(S(C)(=O)=O)C[C@H]5O)ncc4Cl)cc3n21 [Example A11] | 8.52 | 6.84 | 6.91 | 9.52 |
| CC1(C)COCc2nc3c(F)cc(-c4nc(N[C@@H]5CCOC[C@H]5O)ncc4F)cc3n21 [Example A19] | 7.84 | 6.50 | 7.16 | 9.05 |
| CC1(C)OCCn2nc3c(F)cc(-c4nc(N[C@@H]5CCN(S(C)(=O)=O)C[C@H]5O)ncc4Cl)cc3c21 [Example A26] | 8.38 | 7.61 | 7.91 | 9.70 |
| CC1(C)OCCn2nc3c(F)cc(-c4nc(N[C@@H]5CCOC[C@H]5O)ncc4Cl)cc3c21 [Example A27] | 7.80 | 6.57 | 7.12 | 9.00 |
| CC(C)c1c2cc(-c3nc(N[C@@H]4CCN(S(C)(=O)=O)C[C@H]4O)ncc3Cl)ccc2nn1C [Example A28] | 8.21 | 6.88 | 7.00 | 9.30 |
| Cn1nc2ccc(-c3nc(N[C@@H]4CCN(S(C)(=O)=O)C[C@H]4O)ncc3Cl)cc2c1C(C)(C)O [Example A29] | 8.29 | 7.02 | 7.16 | 9.22 |
| CC(C)n1c(C2COC2)nc2c(F)cc(-c3nc(N[C@@H]4CCN(S(C)(=O)=O)C[C@H]4O)ncc3Cl)cc21 [Example A30] | 8.31 | 7.20 | 7.29 | 9.70 |
| Cc1nc2c(F)cc(-c3nc(N[C@@H]4CCN(S(C)(=O)=O)C[C@H]4O)ncc3Cl)cc2n1[C@H](C)CN [Example A38, (3R,4R)-4-[(4-{1-[(2R)-1-aminopropan-2-yl]-4-fluoro-2-methyl-1H-benzimidazol-6-yl}-5-chloropyrimidin-2-yl)amino]-1-(methanesulfonyl)piperidin-3-ol] | 7.99 | 6.22 | 6.34 | 9.30 |
| Cc1nc2c(F)cc(-c3nc(N[C@@H]4CCN(S(C)(=O)=O)C[C@H]4O)ncc3Cl)cc2n1CC(C)N (stereo partly drawn) [Example A40, (3R,4R)-4-({4-[1-(2-aminopropyl)-4-fluoro-2-methyl-1H-benzimidazol-6-yl]-5-chloropyrimidin-2-yl}amino)-1-(methanesulfonyl)piperidin-3-ol] | 8.46 | 6.46 | 7.07 | 9.52 |

The remaining lines, values ahead:

| pKi (CDK6/Cyclin D3) | pIC50 (CDK6) | pIC50 (CDK4) | pKi (CDK4/Cyclin D1) | Structure (SMILES) |
| --- | --- | --- | --- | --- |
| 8.10 | 6.96 | 7.53 | 9.22 | CC(C)n1c([C@H](C)O)nc2cc(F)c(-c3nc(N[C@@H]4CCOC[C@H]4O)ncc3Cl)cc21 [Example A12] |
| 7.50 | 6.56 | 7.14 | 8.77 | CC(C)n1c([C@@H](C)O)nc2c(F)cc(-c3nc(N[C@@H]4CCOC[C@H]4O)ncc3Cl)cc21 [Example A13] |
| 7.31 | 6.67 | 7.03 | 8.51 | CC(C)n1c(C(C)(C)N)nc2c(F)cc(-c3nc(N[C@@H]4CCOC[C@H]4O)ncc3Cl)cc21 [Example A41, 3-({4-[2-(2-aminopropan-2-yl)-4-fluoro-1-(propan-2-yl)-1H-benzimidazol-6-yl]-5-chloropyrimidin-2-yl}amino)-1,5-anhydro-2,3-dideoxy-D-threo-pentitol] |
| 6.94 | 6.39 | 7.12 | 8.31 | CNCc1nc2c(F)cc(-c3nc(N[C@@H]4CCOC[C@H]4O)ncc3Cl)cc2n1C(C)C [Example A44, 1,5-anhydro-3-[(5-chloro-4-{4-fluoro-2-[(methylamino)methyl]-1-(propan-2-yl)-1H-benzimidazol-6-yl}pyrimidin-2-yl)amino]-2,3-dideoxy-D-threo-pentitol] |
| 7.28 | 6.33 | 7.18 | 9.00 | CC(C)n1c(CC(C)(C)N)nc2c(F)cc(-c3nc(N[C@@H]4CCOC[C@H]4O)ncc3Cl)cc21 [Example A45, 3-({4-[2-(2-amino-2-methylpropyl)-4-fluoro-1-(propan-2-yl)-1H-benzimidazol-6-yl]-5-chloropyrimidin-2-yl}amino)-1,5-anhydro-2,3-dideoxy-D-threo-pentitol] |
| 7.84 | 6.66 | 7.12 | 9.15 | Cn1nc2c(F)cc(-c3nc(N[C@@H]4CCOC[C@H]4O)ncc3Cl)cc2c1C(C)(C)N [Example A49, 3-({4-[3-(2-aminopropan-2-yl)-7-fluoro-2-methyl-2H-indazol-5-yl]-5-chloropyrimidin-2-yl}amino)-1,5-anhydro-2,3-dideoxy-D-threo-pentitol] |
| 7.25 | 5.82 | 6.61 | 8.70 | CC(C)(CN)n1cnc2c(F)cc(-c3nc(N[C@@H]4CCOC[C@H]4O)ncc3Cl)cc21 [Example A51, 3-({4-[1-(1-amino-2-methylpropan-2-yl)-4-fluoro-1H-benzimidazol-6-yl]-5-chloropyrimidin-2-yl}amino)-1,5-anhydro-2,3-dideoxy-D-threo-pentitol] |
| 7.22 | 6.01 | 6.69 | 8.57 | Cc1nc2c(F)cc(-c3nc(N[C@@H]4CCOC[C@H]4O)ncc3Cl)cc2n1C(C)(C)CN [Example A52, 3-({4-[1-(1-amino-2-methylpropan-2-yl)-4-fluoro-2-methyl-1H-benzimidazol-6-yl]-5-chloropyrimidin-2-yl}amino)-1,5-anhydro-2,3-dideoxy-D-threo-pentitol] |
| 7.78 | 6.68 | 7.17 | 9.22 | CC(C)n1c([C@H](C)N)nc2c(F)cc(-c3nc(N[C@@H]4CCOC[C@H]4O)ncc3Cl)cc21 [Example A53, 3-[(4-{2-[(1S)-1-aminoethyl]-4-fluoro-1-(propan-2-yl)-1H-benzimidazol-6-yl}-5-chloropyrimidin-2-yl)amino]-1,5-anhydro-2,3-dideoxy-D-threo-pentitol] |
| 7.43 | 6.22 | 6.76 | 8.64 | CC(C)n1c(CN)nc2c(F)cc(-c3nc(N[C@@H]4CCOC[C@H]4O)ncc3Cl)cc21 [Example A54, 3-({4-[2-(aminomethyl)-4-fluoro-1-(propan-2-yl)-1H-benzimidazol-6-yl]-5-chloropyrimidin-2-yl}amino)-1,5-anhydro-2,3-dideoxy-D-threo-pentitol] |
| 7.25 | 6.28 | 7.32 | 9.22 | CC(C)n1c(CC2(N)CCCC2)nc2c(F)cc(-c3nc(N[C@@H]4CCOC[C@H]4O)ncc3Cl)cc21 [Example A59, 3-[(4-{2-[(1-aminocyclopentyl)methyl]-4-fluoro-1-(propan-2-yl)-1H-benzimidazol-6-yl}-5-chloropyrimidin-2-yl)amino]-1,5-anhydro-2,3-dideoxy-D-threo-pentitol] |
| 7.47 | 6.72 | 7.19 | 8.80 | C[C@@H](O)c1nc2c(F)cc(-c3nc(N[C@@H]4CCOC[C@H]4O)ncc3Cl)cc2n1C(C)(C)C [Example A60, 1,5-anhydro-3-[(4-{1-tert-butyl-4-fluoro-2-[(1R)-1-hydroxyethyl]-1H-benzimidazol-6-yl}-5-chloropyrimidin-2-yl)amino]-2,3-dideoxy-D-threo-pentitol] |
